Experimental findings from the OligoGym collection are described below.

These antisense oligonucleotides have a phosphorothioate backbone; sugars and methylation of C are not fully specified.
Further: test concentration or dose not given here.

The target of the first data set is CD44. The following applies: ASO.
The sequence AGGACTGATCCAGGGTTT came in with a remaining target (mRNA or protein) (fraction of control) of 0.83.

TGAGACTTGCTGGCCTCT gave a remaining target (mRNA or protein) (fraction of control) of 0.93.

In turn, GTTGTGTTTGCTCCACCT showed a remaining target (mRNA or protein) (fraction of control) of 0.92.

For the sequence CAAGGTGCTATTGAAAGC, the remaining target (mRNA or protein) (fraction of control) was 0.92.

In turn, TCCCAGCTCCCTGTAATG displayed a remaining target (mRNA or protein) (fraction of control) of at least 1.

The sequence CCTTTGGTGTCTCCCAGA returned a remaining target (mRNA or protein) (fraction of control) of at least 1.

CAGGGATTAGGCTATGGA displayed a remaining target (mRNA or protein) (fraction of control) of at least 1.

Take CTCAGCGGCACGAGGCAG: the remaining target (mRNA or protein) (fraction of control) worked out at 0.91.

AATGTCCTTAGCTGGTGG had a remaining target (mRNA or protein) (fraction of control) of at least 1.

CCAACCTCAGTGGAAAGC yielded a remaining target (mRNA or protein) (fraction of control) of at least 1.

With GGCCTCTCCGTTGAGTCC, the remaining target (mRNA or protein) (fraction of control) was at least 1.

Turning to GGCAGGTCTGTGACTGAT, the remaining target (mRNA or protein) (fraction of control) is at least 1.

CTGGACATAGCGGGTGCC gave a remaining target (mRNA or protein) (fraction of control) of at least 1.

GCCATTCTGGAATTTGGG gave a remaining target (mRNA or protein) (fraction of control) of at least 1.

Consider GGGCCCTAATTTACAAAG, for which the remaining target (mRNA or protein) (fraction of control) is 0.88.

In the case of AGAGGGATGCCAAGATGA, the remaining target (mRNA or protein) (fraction of control) was at least 1.

In turn, GTTTCCAACGGTTGTTTC came in with a remaining target (mRNA or protein) (fraction of control) of at least 1.

TCTCCATCTGGGCCATTG gave a remaining target (mRNA or protein) (fraction of control) of at least 1.

Sequence GATTAGGCTATGGAAGGG showed a remaining target (mRNA or protein) (fraction of control) of at least 1.

As to ATCCATAGCACACCCGAG, the remaining target (mRNA or protein) (fraction of control) was at least 1.

A further data set deals with SRA1. The following applies: ASO.
For the sequence CCTGCTGGAAGCCTGGTA, the remaining target (mRNA or protein) (fraction of control) was at least 1.

In turn, GAGCCTCAGACTCGACTG had a remaining target (mRNA or protein) (fraction of control) of 0.65.

As to TTGGTAAGCAGCGAGCGC, the remaining target (mRNA or protein) (fraction of control) came out at 0.56.

Sequence TGGTAAGCAGCGAGCGCC registered a remaining target (mRNA or protein) (fraction of control) of 0.74.

For the sequence ATGAGGGAGCGGTGGATG, the remaining target (mRNA or protein) (fraction of control) is at least 1.

Consider GACACCAGAGGGACTAGC, for which the remaining target (mRNA or protein) (fraction of control) amounted to 0.73.

Consider CAATGCCTGTTCCAAAGG, for which the remaining target (mRNA or protein) (fraction of control) came to 0.91.

GTAGGCAGTAGTCTGACT displayed a remaining target (mRNA or protein) (fraction of control) of 0.42.

As to CTCCATCAGTCGAGCCTC, the remaining target (mRNA or protein) (fraction of control) is at least 1.

With CATCACATACCTGCTTCC, the remaining target (mRNA or protein) (fraction of control) was 0.68.

Consider TATGAAGCCTGCTGGAAG, for which the remaining target (mRNA or protein) (fraction of control) turned out to be 0.64.

For TGACAACTTTCCTCCAGC, the remaining target (mRNA or protein) (fraction of control) was 0.15.

TTTCTGCAATTAATCTTT: the remaining target (mRNA or protein) (fraction of control) is at least 1.

In the case of ACACATGAACTCCCTCTG, the remaining target (mRNA or protein) (fraction of control) was 0.77.

Turning to TTTCTCTTCATTGGCTGC, the remaining target (mRNA or protein) (fraction of control) is 0.38.

GAGGCCCAGGAGAAGTCT showed a remaining target (mRNA or protein) (fraction of control) of 0.62.

For TTTAACTCCTACCATCCA, the remaining target (mRNA or protein) (fraction of control) came to 0.89.

In the case of ACATGGTCAACCATGAGG, the remaining target (mRNA or protein) (fraction of control) was 0.54.

TGTCATCACATACCTGCT had a remaining target (mRNA or protein) (fraction of control) of 0.76.

In turn, TTTACAGGTATTGACAAC displayed a remaining target (mRNA or protein) (fraction of control) of at least 1.

Sequence TGACAGAAGGTCTCCAAG yielded a remaining target (mRNA or protein) (fraction of control) of 0.81.

Regarding CTTCCCTCATAGGTGGGT, the remaining target (mRNA or protein) (fraction of control) is at least 1.

Consider CCAGTAGAGCCATTCTCT, for which the remaining target (mRNA or protein) (fraction of control) stood at 0.83.

The sequence GGGTCCGCCGGCCTGGGT gave a remaining target (mRNA or protein) (fraction of control) of at least 1.

The sequence GAGGGTCCATACTAAGCG returned a remaining target (mRNA or protein) (fraction of control) of 0.53.

As for CTGACCTCAGTCACATGG, the remaining target (mRNA or protein) (fraction of control) was at least 1.

As for AGTCGAGCCTCAGACTCG, the remaining target (mRNA or protein) (fraction of control) worked out at 0.72.

On to TTTTAACTCCTACCATCC, for which the remaining target (mRNA or protein) (fraction of control) was at least 1.

TGCTGGAAGCCTGGTATG yielded a remaining target (mRNA or protein) (fraction of control) of 0.28.

The sequence GGCCCAGGAGAAGTCTCT gave a remaining target (mRNA or protein) (fraction of control) of at least 1.

Sequence AGCGGTGGATGTCATCTG had a remaining target (mRNA or protein) (fraction of control) of 0.65.

Take TCCAAAGGTCTCAGCACA: the remaining target (mRNA or protein) (fraction of control) is 0.26.

Sequence CAGAGGTTTGCAGATACA registered a remaining target (mRNA or protein) (fraction of control) of 0.35.

Take CATGGTCAACCATGAGGG: the remaining target (mRNA or protein) (fraction of control) is at least 1.

As for CAGGGAGCAGGGCAGTCG, the remaining target (mRNA or protein) (fraction of control) stood at 0.35.

GTCGGCTGATGTCATCAC: the remaining target (mRNA or protein) (fraction of control) is at least 1.

In turn, GGGAGCCTTACTTGAAGG yielded a remaining target (mRNA or protein) (fraction of control) of 0.88.

As to GACCACTCCCCACAGGTG, the remaining target (mRNA or protein) (fraction of control) was at least 1.

Sequence CTTTTCTGCAATTAATCT showed a remaining target (mRNA or protein) (fraction of control) of 0.61.
